Experimental data: PubChem BioAssay (NCI)
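Exposure lasted 48 hours, with cells grown in 96-well plates and compounds tested at five concentrations. GI50 marks 50% less growth. TGI denotes the concentration required for complete inhibition of growth.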

Tests used:
Assay in all cases: growth of human tumour cells (NCI), 48 h
U251 CNS = tested on: U251 CNS
M14 melanoma = tested on: M14 melanoma
HOP-92 NSCLC = tested on: HOP-92 NSCLC
MDA-MB-435 = tested on: MDA-MB-435
EKVX NSCLC = tested on: EKVX NSCLC
UO-31 renal = tested on: UO-31 renal
SF-268 CNS = tested on: SF-268 CNS
SW-620 colon = tested on: SW-620 colon
SN12C renal = tested on: SN12C renal
MOLT-4 leukemia = tested on: MOLT-4 leukemia
NCI-H226 lung = tested on: NCI-H226 lung
OVCAR-4 ovarian = tested on: OVCAR-4 ovarian
UACC-62 melanoma = tested on: UACC-62 melanoma
OVCAR-5 ovarian = tested on: OVCAR-5 ovarian
KM12 colon = tested on: KM12 colon
SR leukemia = tested on: SR leukemia
786-0 renal = tested on: 786-0 renal
HCT-116 colon = tested on: HCT-116 colon
UACC-257 melanoma = tested on: UACC-257 melanoma
ACHN renal = tested on: ACHN renal
SK-MEL-28 melanoma = tested on: SK-MEL-28 melanoma
SNB-75 CNS = tested on: SNB-75 CNS
OVCAR-8 ovarian = tested on: OVCAR-8 ovarian
SK-MEL-5 melanoma = tested on: SK-MEL-5 melanoma
PC-3 prostate = tested on: PC-3 prostate
A549 NSCLC = tested on: A549 NSCLC
NCI/ADR-RES ovarian = tested on: NCI/ADR-RES ovarian
HOP-62 NSCLC = tested on: HOP-62 NSCLC
TK-10 renal = tested on: TK-10 renal
K-562 leukemia = tested on: K-562 leukemia
SNB-19 CNS = tested on: SNB-19 CNS
MDA-MB-231 breast = tested on: MDA-MB-231 breast
HL-60(TB) leukemia = tested on: HL-60(TB) leukemia
NCI-H460 lung = tested on: NCI-H460 lung
DU-145 prostate = tested on: DU-145 prostate
COLO 205 colon = tested on: COLO 205 colon
SK-OV-3 ovarian = tested on: SK-OV-3 ovarian
MCF7 breast = tested on: MCF7 breast
NCI-H522 lung = tested on: NCI-H522 lung
NCI-H23 lung = tested on: NCI-H23 lung
SF-539 CNS = tested on: SF-539 CNS
CAKI-1 renal = tested on: CAKI-1 renal
HT29 colon = tested on: HT29 colon
HS 578T breast = tested on: HS 578T breast
IGROV1 ovarian = tested on: IGROV1 ovarian
MALME-3M melanoma = tested on: MALME-3M melanoma
RXF 393 renal = tested on: RXF 393 renal
T-47D breast = tested on: T-47D breast
SK-MEL-2 melanoma = tested on: SK-MEL-2 melanoma
HCT-15 colon = tested on: HCT-15 colon
OVCAR-3 ovarian = tested on: OVCAR-3 ovarian
SF-295 CNS = tested on: SF-295 CNS
CCRF-CEM leukemia = tested on: CCRF-CEM leukemia
BT-549 breast = tested on: BT-549 breast
LOX IMVI melanoma = tested on: LOX IMVI melanoma
RPMI-8226 leukemia = tested on: RPMI-8226 leukemia

`NC(=S)c1cccc(C2Nc3ccccc3O2)c1` (stereo not drawn) showed a TGI (U251 CNS) greater than 100000 nM, a TGI (M14 melanoma) greater than 100000 nM and a TGI (HOP-92 NSCLC) greater than 100000 nM. It also gave a TGI (MDA-MB-435) greater than 100000 nM, a TGI (EKVX NSCLC) greater than 100000 nM and a TGI (UO-31 renal) greater than 100000 nM. It also gave a TGI (SF-268 CNS) greater than 100000 nM, a TGI (SW-620 colon) greater than 100000 nM and a TGI (SN12C renal) of 12100 nM. The TGI (MOLT-4 leukemia) was greater than 100000 nM, the TGI (NCI-H226 lung) was greater than 100000 nM and the TGI (OVCAR-4 ovarian) was greater than 100000 nM. For the same compound, the TGI (UACC-62 melanoma) was 96200 nM, the TGI (OVCAR-5 ovarian) was greater than 100000 nM and the TGI (KM12 colon) was greater than 100000 nM. For the same compound, the TGI (SR leukemia) was greater than 100000 nM, the TGI (786-0 renal) was greater than 100000 nM and the TGI (HCT-116 colon) was greater than 100000 nM. It also gave a TGI (UACC-257 melanoma) greater than 100000 nM, a TGI (ACHN renal) greater than 100000 nM and a TGI (SK-MEL-28 melanoma) greater than 100000 nM. It also gave a TGI (SNB-75 CNS) greater than 100000 nM, a TGI (OVCAR-8 ovarian) greater than 100000 nM and a TGI (SK-MEL-5 melanoma) greater than 100000 nM. It also gave a TGI (PC-3 prostate) greater than 100000 nM, a TGI (A549 NSCLC) greater than 100000 nM and a TGI (NCI/ADR-RES ovarian) greater than 100000 nM. It also gave a TGI (HOP-62 NSCLC) greater than 100000 nM, a TGI (TK-10 renal) greater than 100000 nM and a TGI (K-562 leukemia) greater than 100000 nM. For the same compound, the TGI (SNB-19 CNS) was greater than 100000 nM, the TGI (MDA-MB-231 breast) was greater than 100000 nM and the TGI (HL-60(TB) leukemia) was greater than 100000 nM. For the same compound, the TGI (NCI-H460 lung) was greater than 100000 nM, the TGI (DU-145 prostate) was greater than 100000 nM and the TGI (COLO 205 colon) was greater than 100000 nM. The TGI (SK-OV-3 ovarian) was greater than 100000 nM, the TGI (MCF7 breast) was greater than 100000 nM and the TGI (NCI-H522 lung) was greater than 100000 nM. For the same compound, the TGI (NCI-H23 lung) was greater than 100000 nM, the TGI (SF-539 CNS) was greater than 100000 nM and the TGI (CAKI-1 renal) was greater than 100000 nM. For the same compound, the TGI (HT29 colon) was greater than 100000 nM, the TGI (HS 578T breast) was greater than 100000 nM and the TGI (IGROV1 ovarian) was greater than 100000 nM. The TGI (MALME-3M melanoma) was greater than 100000 nM, the TGI (RXF 393 renal) was greater than 100000 nM and the TGI (T-47D breast) was greater than 100000 nM. For the same compound, the TGI (SK-MEL-2 melanoma) was greater than 100000 nM, the TGI (HCT-15 colon) was greater than 100000 nM and the TGI (OVCAR-3 ovarian) was greater than 100000 nM. It also gave a TGI (SF-295 CNS) greater than 100000 nM.
Work on `O=C1c2ccccc2-c2c1c1ccccc1c(=O)n2CCNCCNCCNCCNCCn1c2c(c3ccccc3c1=O)C(=O)c1ccccc1-2` yielded a GI50 (U251 CNS) greater than 100000 nM, a TGI (U251 CNS) greater than 100000 nM and a GI50 (HOP-92 NSCLC) of 939 nM. It also gave a TGI (HOP-92 NSCLC) of 2500 nM, a GI50 (EKVX NSCLC) of 677 nM and a TGI (EKVX NSCLC) of 2700 nM. It also gave a GI50 (UO-31 renal) of 661 nM, a TGI (UO-31 renal) of 2090 nM and a GI50 (SF-268 CNS) of 49 nM. It also gave a TGI (SF-268 CNS) of 808 nM, a GI50 (SW-620 colon) of 40.5 nM and a TGI (SW-620 colon) of 1170 nM. It also gave a GI50 (MOLT-4 leukemia) of less than 19.1 nM, a GI50 (NCI-H226 lung) of 368 nM and a TGI (NCI-H226 lung) of 1950 nM. For the same compound, the GI50 (UACC-62 melanoma) was 447 nM, the TGI (UACC-62 melanoma) was 1710 nM and the GI50 (OVCAR-5 ovarian) was greater than 100000 nM. It also gave a TGI (OVCAR-5 ovarian) greater than 100000 nM, a GI50 (KM12 colon) of 655 nM and a TGI (KM12 colon) of 5320 nM. The GI50 (CCRF-CEM leukemia) was 125 nM, the TGI (CCRF-CEM leukemia) was 2650 nM and the GI50 (786-0 renal) was 102 nM. It also gave a TGI (786-0 renal) of 2190 nM, a GI50 (HCT-116 colon) of 133 nM and a GI50 (UACC-257 melanoma) of 716 nM. For the same compound, the TGI (UACC-257 melanoma) was 5730 nM, the GI50 (ACHN renal) was 44.6 nM and the TGI (ACHN renal) was 580 nM. The GI50 (SK-MEL-28 melanoma) was 1950 nM, the TGI (SK-MEL-28 melanoma) was greater than 100000 nM and the GI50 (BT-549 breast) was 334 nM. For the same compound, the TGI (BT-549 breast) was 1620 nM, the GI50 (OVCAR-8 ovarian) was 172 nM and the TGI (OVCAR-8 ovarian) was 2690 nM. It also gave a GI50 (SK-MEL-5 melanoma) of 323 nM, a TGI (SK-MEL-5 melanoma) of 1470 nM and a GI50 (A549 NSCLC) of 590 nM. The TGI (A549 NSCLC) was 3230 nM, the GI50 (NCI/ADR-RES ovarian) was greater than 53000 nM and the TGI (NCI/ADR-RES ovarian) was 96900 nM. It also gave a GI50 (HOP-62 NSCLC) of 973 nM, a TGI (HOP-62 NSCLC) of 2240 nM and a GI50 (TK-10 renal) of 177 nM. For the same compound, the TGI (TK-10 renal) was 1350 nM, the GI50 (K-562 leukemia) was 46.2 nM and the GI50 (MDA-MB-231 breast) was 84.6 nM. The TGI (MDA-MB-231 breast) was 1600 nM, the GI50 (HL-60(TB) leukemia) was 216 nM and the TGI (HL-60(TB) leukemia) was 2080 nM. It also gave a GI50 (NCI-H460 lung) of 66.9 nM, a TGI (NCI-H460 lung) of 1990 nM and a GI50 (DU-145 prostate) of 161 nM. For the same compound, the TGI (DU-145 prostate) was 1570 nM, the GI50 (COLO 205 colon) was 597 nM and the TGI (COLO 205 colon) was 3940 nM. For the same compound, the GI50 (MCF7 breast) was 50.1 nM, the TGI (MCF7 breast) was 1710 nM and the GI50 (NCI-H522 lung) was 20.2 nM. For the same compound, the TGI (NCI-H522 lung) was 474 nM, the GI50 (NCI-H23 lung) was 615 nM and the TGI (NCI-H23 lung) was 2750 nM. It also gave a GI50 (SF-539 CNS) of 44.6 nM, a TGI (SF-539 CNS) of 314 nM and a GI50 (CAKI-1 renal) of 260 nM. For the same compound, the TGI (CAKI-1 renal) was 2930 nM, the GI50 (LOX IMVI melanoma) was 18.2 nM and the TGI (LOX IMVI melanoma) was 70.3 nM. The GI50 (HT29 colon) was 98.6 nM, the TGI (HT29 colon) was 4070 nM and the GI50 (T-47D breast) was 1990 nM. It also gave a TGI (T-47D breast) greater than 100000 nM, a GI50 (SK-MEL-2 melanoma) of 692 nM and a TGI (SK-MEL-2 melanoma) of 2400 nM. For the same compound, the GI50 (HCT-15 colon) was 568 nM, the TGI (HCT-15 colon) was 2560 nM and the GI50 (OVCAR-3 ovarian) was 1450 nM. For the same compound, the TGI (OVCAR-3 ovarian) was 4960 nM, the GI50 (RPMI-8226 leukemia) was 17.8 nM and the TGI (RPMI-8226 leukemia) was 187 nM.
